From ChEMBL document CHEMBL4680147, “Discovery of 6'-chloro-N-methyl-5'-(phenylsulfonamido)-[3,3'-bipyridine]-5-carboxamide (CHMFL-PI4K-127) as a novel Plasmodium falciparum PI(4)K inhibitor with potent antimalarial activity against both blood and liver stages of Plasmodium” (Eur J Med Chem, 2020)

Columns and labels:
Plasmodium falciparum [1] = assay: Antimalarial activity against sulphadoxine-resistant blood stage Plasmodium falciparum 3D7 infected in human O+ erythrocytes incubated for 72 hrs by SYBR Green 1 dye based fluorescence assay; assay type: functional, organism-based; conditions: 3D7, Erythrocyte
[2] = Inhibition of recombinant His-tagged Plasmodium falciparum 3D7 PI4K expressed in baculovirus infected Sf9 cells using PI:PS as substrate incubated for 1 hr in presence of ATP by ADP-Glo kinase assay
Plasmodium falciparum [3] = assay: Antimalarial activity against mefloquine/chloroquine/pyrimethamine resistant Plasmodium falciparum Dd2 infected in human O+ erythrocytes incubated for 72 hrs by SYBR Green 1 dye based fluorescence assay; assay type: functional, organism-based; conditions: Dd2, Erythrocyte
[4] = molecular target: Phosphatidylinositol 4,5-bisphosphate 3-kinase catalytic subunit alpha isoform (Homo sapiens, UniProt P42336); assay: Inhibition of human PI3Kalpha by ADP-Glo kinase assay
[5] = molecular target: Phosphatidylinositol 4,5-bisphosphate 3-kinase catalytic subunit beta isoform (Homo sapiens, UniProt P42338); assay: Inhibition of human PI3Kbeta by ADP-Glo kinase assay
[6] = molecular target: T1, Phosphatidylinositol 4,5-bisphosphate 3-kinase catalytic subunit delta isoform (Homo sapiens, UniProt O00329); assay: Inhibition of human PI3Kdelta by ADP-Glo kinase assay
T1 sequence (O00329 whole entry): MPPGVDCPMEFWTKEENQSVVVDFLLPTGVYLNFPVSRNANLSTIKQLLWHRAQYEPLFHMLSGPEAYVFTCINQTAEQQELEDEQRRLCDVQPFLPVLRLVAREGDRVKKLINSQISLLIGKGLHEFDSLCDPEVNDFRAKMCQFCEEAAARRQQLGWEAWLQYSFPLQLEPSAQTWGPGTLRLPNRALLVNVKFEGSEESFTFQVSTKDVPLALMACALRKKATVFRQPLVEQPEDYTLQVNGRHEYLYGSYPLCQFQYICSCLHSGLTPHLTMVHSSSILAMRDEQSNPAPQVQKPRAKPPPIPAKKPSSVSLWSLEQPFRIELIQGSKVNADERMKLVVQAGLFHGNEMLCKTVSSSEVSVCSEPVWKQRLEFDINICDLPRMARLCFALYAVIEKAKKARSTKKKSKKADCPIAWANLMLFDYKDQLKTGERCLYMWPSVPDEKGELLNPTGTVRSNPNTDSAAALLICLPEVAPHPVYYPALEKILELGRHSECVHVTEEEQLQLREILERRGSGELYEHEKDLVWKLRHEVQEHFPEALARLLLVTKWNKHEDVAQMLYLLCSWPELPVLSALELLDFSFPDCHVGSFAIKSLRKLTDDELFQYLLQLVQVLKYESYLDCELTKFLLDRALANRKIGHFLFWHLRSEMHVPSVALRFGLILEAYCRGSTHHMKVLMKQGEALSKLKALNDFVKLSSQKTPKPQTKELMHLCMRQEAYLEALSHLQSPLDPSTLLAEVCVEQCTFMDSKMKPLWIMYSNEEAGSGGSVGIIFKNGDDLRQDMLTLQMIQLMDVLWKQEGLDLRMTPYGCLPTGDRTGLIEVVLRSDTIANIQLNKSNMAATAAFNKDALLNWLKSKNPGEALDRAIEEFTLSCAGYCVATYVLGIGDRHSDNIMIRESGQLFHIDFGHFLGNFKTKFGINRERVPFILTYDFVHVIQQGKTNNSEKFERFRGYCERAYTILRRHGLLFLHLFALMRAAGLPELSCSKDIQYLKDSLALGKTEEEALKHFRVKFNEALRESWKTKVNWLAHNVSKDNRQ

[7] = molecular target: Phosphatidylinositol 4,5-bisphosphate 3-kinase catalytic subunit gamma isoform (Homo sapiens, UniProt P48736); assay: Inhibition of human PI3Kgamma by ADP-Glo kinase assay
[8] = molecular target: Phosphatidylinositol 4-phosphate 3-kinase C2 domain-containing subunit beta (Homo sapiens, UniProt O00750); assay: Inhibition of human PIK3C2beta by ADP-Glo kinase assay
[9] = molecular target: Phosphatidylinositol 3-kinase catalytic subunit type 3 (Homo sapiens, UniProt Q8NEB9); assay: Inhibition of human VPS34 by ADP-Glo kinase assay
[10] = molecular target: Phosphatidylinositol 4-kinase alpha (Homo sapiens, UniProt P42356); assay: Inhibition of human PI4K3alpha by ADP-Glo kinase assay
[11] = molecular target: Phosphatidylinositol 4-kinase beta (Homo sapiens, UniProt Q9UBF8); assay: Inhibition of human PI4K3beta by ADP-Glo kinase assay
Plasmodium falciparum [12] = assay: Antimalarial activity against artemisinin resistant Plasmodium falciparum 803 infected in human O+ erythrocytes incubated for 72 hrs by SYBR Green 1 dye based fluorescence assay; assay type: functional, organism-based; conditions: Plasmodium falciparum, 803, Erythrocyte
Plasmodium falciparum [13] = assay: Antimalarial activity against artemisinin and piperaquine-phosphate resistant Plasmodium falciparum 6320 infected in human O+ erythrocytes incubated for 72 hrs by SYBR Green 1 dye based fluorescence assay; assay type: functional, organism-based; conditions: Plasmodium falciparum, 6320, Erythrocyte
Plasmodium falciparum [14] = assay: Antimalarial activity against Plasmodium falciparum GB4 infected in human O+ erythrocytes incubated for 72 hrs by SYBR Green 1 dye based fluorescence assay; assay type: functional, organism-based; conditions: GB4, Erythrocyte
Plasmodium falciparum [15] = assay: Antimalarial activity against chloroquine resistant Plasmodium falciparum FAB9 infected in human O+ erythrocytes incubated for 72 hrs by SYBR Green 1 dye based fluorescence assay; assay type: functional, organism-based; conditions: FAB9, Erythrocyte
Plasmodium falciparum [16] = assay: Antimalarial activity against pyrimethamine/chloroquine resistant Plasmodium falciparum C2A infected in human O+ erythrocytes incubated for 72 hrs by SYBR Green 1 dye based fluorescence assay; assay type: functional, organism-based; conditions: Erythrocyte
Plasmodium falciparum [17] = assay: Antimalarial activity against chloroquine resistant Plasmodium falciparum D10 infected in human O+ erythrocytes incubated for 72 hrs by SYBR Green 1 dye based fluorescence assay; assay type: functional, organism-based; conditions: D10, Erythrocyte
Plasmodium falciparum [18] = assay: Antimalarial activity against pyrimethamine/chloroquine resistant Plasmodium falciparum PC26 infected in human O+ erythrocytes incubated for 72 hrs by SYBR Green 1 dye based fluorescence assay; assay type: functional, organism-based; conditions: PC26, Erythrocyte
Plasmodium falciparum [19] = assay: Antimalarial activity against pyrimethamine/chloroquine resistant Plasmodium falciparum CP286 infected in human O+ erythrocytes incubated for 72 hrs by SYBR Green 1 dye based fluorescence assay; assay type: functional, organism-based; conditions: CP286, Erythrocyte
[20] = Inhibition of human PIK3C2alpha by ADP-Glo kinase assay

Phosphatidylinositol 4,5-bisphosphate 3-kinase catalytic subunit gamma isoform, sequence (P48736 whole entry, the tested form may be a part, canonical isoform): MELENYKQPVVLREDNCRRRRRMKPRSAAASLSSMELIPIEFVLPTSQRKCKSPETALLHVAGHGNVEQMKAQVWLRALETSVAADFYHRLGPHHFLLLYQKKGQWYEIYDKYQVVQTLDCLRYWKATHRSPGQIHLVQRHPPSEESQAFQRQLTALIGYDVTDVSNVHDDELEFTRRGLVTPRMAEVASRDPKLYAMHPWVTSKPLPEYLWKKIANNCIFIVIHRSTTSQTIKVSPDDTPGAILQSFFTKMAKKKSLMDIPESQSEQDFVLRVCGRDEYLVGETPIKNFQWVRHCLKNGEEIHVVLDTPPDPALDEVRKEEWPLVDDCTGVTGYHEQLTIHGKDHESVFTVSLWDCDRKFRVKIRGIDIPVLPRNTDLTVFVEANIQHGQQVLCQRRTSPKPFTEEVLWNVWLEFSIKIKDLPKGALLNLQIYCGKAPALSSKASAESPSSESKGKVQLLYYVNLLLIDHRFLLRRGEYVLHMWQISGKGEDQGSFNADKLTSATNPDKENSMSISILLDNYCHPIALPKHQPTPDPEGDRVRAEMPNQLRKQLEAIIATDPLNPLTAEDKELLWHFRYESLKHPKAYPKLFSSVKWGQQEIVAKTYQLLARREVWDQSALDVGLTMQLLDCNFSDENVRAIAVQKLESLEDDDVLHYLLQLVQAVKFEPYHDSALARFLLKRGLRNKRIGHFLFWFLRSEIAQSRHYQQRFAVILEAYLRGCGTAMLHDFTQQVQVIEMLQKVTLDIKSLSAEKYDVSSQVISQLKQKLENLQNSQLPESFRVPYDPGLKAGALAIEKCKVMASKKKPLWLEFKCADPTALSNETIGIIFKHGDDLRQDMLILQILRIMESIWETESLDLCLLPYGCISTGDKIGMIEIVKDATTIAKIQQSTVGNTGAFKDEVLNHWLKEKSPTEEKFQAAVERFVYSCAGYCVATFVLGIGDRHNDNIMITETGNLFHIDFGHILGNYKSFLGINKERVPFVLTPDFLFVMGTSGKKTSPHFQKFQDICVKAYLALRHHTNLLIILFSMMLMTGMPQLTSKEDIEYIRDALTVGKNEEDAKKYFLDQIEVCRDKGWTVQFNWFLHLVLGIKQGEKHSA
Phosphatidylinositol 4-phosphate 3-kinase C2 domain-containing subunit beta, sequence (O00750 whole entry, the tested form may be a part): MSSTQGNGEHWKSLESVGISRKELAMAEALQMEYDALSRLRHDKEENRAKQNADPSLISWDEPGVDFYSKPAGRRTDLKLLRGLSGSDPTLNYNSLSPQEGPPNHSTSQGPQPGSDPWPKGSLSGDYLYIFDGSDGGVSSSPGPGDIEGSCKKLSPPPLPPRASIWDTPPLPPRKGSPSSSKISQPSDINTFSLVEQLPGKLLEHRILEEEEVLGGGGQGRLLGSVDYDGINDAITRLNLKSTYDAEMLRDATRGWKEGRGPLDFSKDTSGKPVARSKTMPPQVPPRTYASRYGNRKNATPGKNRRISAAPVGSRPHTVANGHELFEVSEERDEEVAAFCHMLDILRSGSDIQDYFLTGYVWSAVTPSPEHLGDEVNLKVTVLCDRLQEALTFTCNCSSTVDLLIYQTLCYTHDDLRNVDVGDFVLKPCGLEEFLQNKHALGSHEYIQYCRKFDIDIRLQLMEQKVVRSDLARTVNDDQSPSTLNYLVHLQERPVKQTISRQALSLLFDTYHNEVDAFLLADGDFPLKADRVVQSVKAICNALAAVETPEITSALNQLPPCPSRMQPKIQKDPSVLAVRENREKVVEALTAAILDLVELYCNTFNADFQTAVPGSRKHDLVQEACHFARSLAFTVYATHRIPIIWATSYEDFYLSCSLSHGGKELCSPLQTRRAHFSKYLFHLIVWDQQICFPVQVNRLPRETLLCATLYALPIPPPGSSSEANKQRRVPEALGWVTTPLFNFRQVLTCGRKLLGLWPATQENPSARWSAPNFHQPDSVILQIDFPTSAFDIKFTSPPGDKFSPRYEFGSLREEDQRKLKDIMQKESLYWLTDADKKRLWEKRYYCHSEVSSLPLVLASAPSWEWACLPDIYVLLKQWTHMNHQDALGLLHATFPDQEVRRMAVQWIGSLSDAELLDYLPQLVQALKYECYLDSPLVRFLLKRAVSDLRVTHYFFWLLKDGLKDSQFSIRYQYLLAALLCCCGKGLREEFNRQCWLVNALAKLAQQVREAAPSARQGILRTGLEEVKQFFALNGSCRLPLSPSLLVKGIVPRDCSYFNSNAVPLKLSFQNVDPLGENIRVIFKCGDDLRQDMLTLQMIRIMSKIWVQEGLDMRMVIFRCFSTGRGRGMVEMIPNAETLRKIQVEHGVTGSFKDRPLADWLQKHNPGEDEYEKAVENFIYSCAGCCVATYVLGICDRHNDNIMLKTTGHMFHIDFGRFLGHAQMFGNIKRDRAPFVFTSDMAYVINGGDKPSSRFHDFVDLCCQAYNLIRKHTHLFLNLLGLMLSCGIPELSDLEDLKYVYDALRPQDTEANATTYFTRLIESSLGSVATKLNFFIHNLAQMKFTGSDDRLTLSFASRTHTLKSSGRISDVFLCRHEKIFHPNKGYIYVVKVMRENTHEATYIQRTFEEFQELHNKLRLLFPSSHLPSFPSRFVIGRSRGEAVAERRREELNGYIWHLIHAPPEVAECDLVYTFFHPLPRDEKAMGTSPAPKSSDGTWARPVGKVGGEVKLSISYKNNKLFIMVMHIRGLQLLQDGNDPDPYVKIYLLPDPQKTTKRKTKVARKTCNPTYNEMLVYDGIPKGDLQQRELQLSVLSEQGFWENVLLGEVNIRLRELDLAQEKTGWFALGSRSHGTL
Phosphatidylinositol 4,5-bisphosphate 3-kinase catalytic subunit alpha isoform, sequence (P42336 whole entry, canonical isoform): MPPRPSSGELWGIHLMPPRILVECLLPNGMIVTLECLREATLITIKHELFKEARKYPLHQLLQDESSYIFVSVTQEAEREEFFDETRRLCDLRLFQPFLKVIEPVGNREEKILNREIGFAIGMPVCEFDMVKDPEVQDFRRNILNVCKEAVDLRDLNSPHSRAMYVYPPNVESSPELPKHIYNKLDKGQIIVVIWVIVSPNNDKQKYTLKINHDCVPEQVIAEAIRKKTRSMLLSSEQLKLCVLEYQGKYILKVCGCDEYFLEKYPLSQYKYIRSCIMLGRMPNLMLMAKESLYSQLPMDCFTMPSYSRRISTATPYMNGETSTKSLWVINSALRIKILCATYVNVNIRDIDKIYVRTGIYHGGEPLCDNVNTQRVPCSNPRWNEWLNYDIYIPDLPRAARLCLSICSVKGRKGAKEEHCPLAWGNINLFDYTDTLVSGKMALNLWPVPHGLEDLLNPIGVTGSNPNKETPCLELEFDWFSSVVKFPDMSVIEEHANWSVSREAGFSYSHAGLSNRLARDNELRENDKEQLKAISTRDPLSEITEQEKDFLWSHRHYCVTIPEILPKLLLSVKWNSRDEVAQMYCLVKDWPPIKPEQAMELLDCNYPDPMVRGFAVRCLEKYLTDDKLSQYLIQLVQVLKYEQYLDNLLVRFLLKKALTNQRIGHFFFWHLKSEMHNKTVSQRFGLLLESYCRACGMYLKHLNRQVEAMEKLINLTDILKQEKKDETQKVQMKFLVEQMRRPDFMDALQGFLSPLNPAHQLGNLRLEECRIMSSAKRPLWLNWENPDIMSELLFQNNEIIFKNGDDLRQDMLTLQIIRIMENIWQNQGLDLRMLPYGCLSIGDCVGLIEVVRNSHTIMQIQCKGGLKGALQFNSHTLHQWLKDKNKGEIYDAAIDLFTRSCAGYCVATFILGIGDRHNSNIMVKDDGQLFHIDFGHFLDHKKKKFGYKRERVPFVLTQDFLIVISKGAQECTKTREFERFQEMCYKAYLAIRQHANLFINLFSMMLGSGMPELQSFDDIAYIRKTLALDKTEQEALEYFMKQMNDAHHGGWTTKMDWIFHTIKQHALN
Phosphatidylinositol 4,5-bisphosphate 3-kinase catalytic subunit beta isoform, sequence (P42338 whole entry, canonical isoform): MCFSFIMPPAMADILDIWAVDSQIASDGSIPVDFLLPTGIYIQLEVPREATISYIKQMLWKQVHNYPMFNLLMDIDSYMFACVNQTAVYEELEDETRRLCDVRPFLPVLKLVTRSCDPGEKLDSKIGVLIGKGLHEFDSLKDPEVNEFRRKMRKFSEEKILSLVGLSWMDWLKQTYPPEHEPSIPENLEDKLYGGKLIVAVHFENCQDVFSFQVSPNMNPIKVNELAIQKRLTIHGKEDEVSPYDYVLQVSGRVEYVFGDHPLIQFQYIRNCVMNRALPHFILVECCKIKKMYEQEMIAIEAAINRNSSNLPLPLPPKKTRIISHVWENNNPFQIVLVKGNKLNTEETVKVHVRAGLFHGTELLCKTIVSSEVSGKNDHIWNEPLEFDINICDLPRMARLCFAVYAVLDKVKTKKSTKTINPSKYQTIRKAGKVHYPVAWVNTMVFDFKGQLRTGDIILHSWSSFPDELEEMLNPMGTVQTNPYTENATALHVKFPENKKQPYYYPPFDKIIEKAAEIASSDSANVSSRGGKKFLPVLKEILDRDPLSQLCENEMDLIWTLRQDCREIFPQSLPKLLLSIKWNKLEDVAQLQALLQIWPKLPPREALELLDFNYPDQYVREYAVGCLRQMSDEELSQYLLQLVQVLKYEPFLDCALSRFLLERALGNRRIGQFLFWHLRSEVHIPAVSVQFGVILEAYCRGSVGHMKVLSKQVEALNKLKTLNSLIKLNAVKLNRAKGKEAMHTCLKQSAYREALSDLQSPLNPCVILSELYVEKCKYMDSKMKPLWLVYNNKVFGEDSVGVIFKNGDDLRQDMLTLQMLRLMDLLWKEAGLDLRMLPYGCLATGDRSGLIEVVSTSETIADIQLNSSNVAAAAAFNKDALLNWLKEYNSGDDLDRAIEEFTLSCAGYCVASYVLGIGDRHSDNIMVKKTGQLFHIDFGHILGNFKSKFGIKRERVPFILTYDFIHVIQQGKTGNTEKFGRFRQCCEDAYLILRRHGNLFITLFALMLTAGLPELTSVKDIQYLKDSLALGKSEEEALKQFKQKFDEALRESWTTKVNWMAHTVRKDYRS

| SMILES | EC50 (Plasmodium falciparum [1]) [nM] | IC50 [2] [nM] | further results |
| --- | --- | --- | --- |
| CN(C)[C@H]1CCN(C(=O)c2cncc(-c3cnc(Cl)c(NS(=O)(=O)c4ccccc4)c3)c2)C1 | > 10000 | > 156 | – |
| CCNC(=O)c1cncc(-c2cnc(Cl)c(NS(=O)(=O)c3ccccc3)c2)c1 | 120 | 2.3 | – |
| CNC(=O)c1cccc(-c2cnc(Cl)c(NS(=O)(=O)c3ccccc3)c2)c1 | > 10000 | > 156 | – |
| Cn1cc(-c2cnc(Cl)c(NS(=O)(=O)c3ccccc3)c2)cn1 | 1490 | 10 | – |
| C[C@H](CN)NC(=O)c1cncc(-c2cnc(Cl)c(NS(=O)(=O)c3ccccc3)c2)c1 | > 10000 | > 40 | – |
| CNC(=O)c1cncc(-c2cnc(Cl)c(NS(=O)(=O)c3ccc(Cl)cc3)c2)c1 | 71 | 1.6 | – |
| NCCNC(=O)c1cncc(-c2cnc(Cl)c(NS(=O)(=O)c3ccccc3)c2)c1 | 130 | 13.8 | – |
| CCCS(=O)(=O)Nc1cc(-c2cncc(C(=O)NC)c2)cnc1Cl | 480 | 13.2 | – |
| O=C(Nc1cccc(F)c1)c1cncc(-c2cnc(Cl)c(NS(=O)(=O)c3ccccc3)c2)c1 | > 10000 | > 156 | – |
| CNC(=O)c1cncc(-c2cnc(Cl)c(NS(=O)(=O)c3ccc(F)cc3F)c2)c1 | 3400 | 0.4 | – |
| O=C(Nc1ccc(F)cc1)c1cncc(-c2cnc(Cl)c(NS(=O)(=O)c3ccccc3)c2)c1 | > 10000 | > 156 | – |
| CNC(=O)c1cncc(-c2cnc(Cl)c(NS(=O)(=O)c3ccc(C)cc3C)c2)c1 | 39 | 2.2 | – |
| CNC(=O)c1cncc(-c2cnc(Cl)c(NS(=O)(=O)c3ccc(C)cc3)c2)c1 | 39 | 1.2 | – |
| O=S(=O)(Nc1cc(-c2cnc3[nH]ncc3c2)cnc1Cl)c1ccccc1 | 4670 | 5.6 | – |
| CNC(=O)c1cncc(-c2cnc(Cl)c(NS(=O)(=O)c3ccc(Cl)cc3Cl)c2)c1 | 120 | 1.2 | – |
| CNC(=O)c1cc(-c2cnc(Cl)c(NS(=O)(=O)c3ccccc3)c2)c[nH]1 | > 10000 | > 156 | – |

| SMILES | EC50 (Plasmodium falciparum [1]) [nM] | IC50 [2] [nM] | further results |
| --- | --- | --- | --- |
| CC(=O)n1ccc2cc(-c3cnc(Cl)c(NS(=O)(=O)c4ccccc4)c3)cnc21 | 1050 | 8.1 | – |
| CNC(=O)c1cncc(-c2cnc(Cl)c(NS(=O)(=O)c3ccc(-c4ccccc4)cc3)c2)c1 | 5880 | 8.8 | – |
| CCS(=O)(=O)Nc1cc(-c2cncc(C(=O)NC)c2)cnc1Cl | 3500 | 52.6 | – |
| CNC(=O)c1cc(-c2cnc(Cl)c(NS(=O)(=O)c3ccccc3)c2)ccn1 | > 10000 | > 156 | – |
| CNC(=O)c1cncc(-c2cnc(Cl)c(NS(=O)(=O)c3ccc4c(c3)CCO4)c2)c1 | 340 | 4.5 | – |
| CNC(=O)c1cncc(-c2cnc(Cl)c(NS(=O)(=O)c3cccc(-c4ccccc4)c3)c2)c1 | 7700 | 7.5 | – |
| CNC(=O)c1ccc(-c2cnc3cnc(C(=O)N(C)c4ccc(Cl)cc4)cn23)cc1 | 41.1 | 1.6 | EC50 (Plasmodium falciparum [3]): 46.7 nM; IC50 [4]: > 10000 nM; IC50 [5]: 2730 nM; IC50 [6]: 3100 nM; IC50 [7]: 5920 nM; IC50 [8]: > 10000 nM; IC50 [9]: 9200 nM; IC50 [10]: 1420 nM; IC50 [11]: > 10000 nM; EC50 (Plasmodium falciparum [12]): 41.8 nM; EC50 (Plasmodium falciparum [13]): 33.6 nM; EC50 (Plasmodium falciparum [14]): 39.2 nM; EC50 (Plasmodium falciparum [15]): 44.8 nM; EC50 (Plasmodium falciparum [16]): 33.7 nM; EC50 (Plasmodium falciparum [17]): 43.9 nM; EC50 (Plasmodium falciparum [18]): 54.9 nM; EC50 (Plasmodium falciparum [19]): 31.9 nM; IC50 [20]: > 10000 nM |
| O=S(=O)(Nc1cc(-c2cccnc2)cnc1Cl)c1ccccc1 | 4710 | 12.7 | – |
| CNC(=O)c1cncc(-c2cnc(Cl)c(NC(=O)c3ccccc3)c2)c1 | > 10000 | > 156 | – |
| O=S(=O)(Nc1cc(-c2ccncc2)cnc1Cl)c1ccccc1 | > 10000 | > 156 | – |
| CNC(=O)c1cncc(-c2cnc(Cl)c(NS(=O)(=O)c3ccccc3C(F)(F)F)c2)c1 | 87 | 0.5 | – |
| O=C(NCc1ccccc1)c1cncc(-c2cnc(Cl)c(NS(=O)(=O)c3ccccc3)c2)c1 | 3570 | 8.5 | – |
| CNC(=O)c1cncc(-c2cnc(Cl)c(NS(=O)(=O)c3ccc(C(F)(F)F)cc3)c2)c1 | 130 | > 156 | – |
| O=S(=O)(Nc1cc(-c2cnc3[nH]ccc3c2)cnc1Cl)c1ccccc1 | 3940 | 7.7 | – |
| CNC(=O)c1cncc(-c2cnc(Cl)c(NS(=O)(=O)c3cccc(C(F)(F)F)c3)c2)c1 | 3500 | 2.5 | – |
| O=C(Nc1ccccc1)c1cncc(-c2cnc(Cl)c(NS(=O)(=O)c3ccccc3)c2)c1 | 3680 | 145 | – |
